Reference: patent US7241738B2, “Peptides effective in the treatment of tumors and other conditions requiring the removal or destruction of cells” (Nymox Pharmaceutical Corporation, priority 2001, dated 2007)
“And” between values parts separate entries of the source, which are not always exact repeats. Equal values may be shown once. Peptide text beside a SMILES is read from it.

Assays:
[1] = test system: muscle tissue, subcutaneous connective tissue, and dermis at injection sites; experiment: Injection into skin, subcutaneous tissue and extremity skeletal muscle of normal rats; histopathology at 24 hours; assay type: in vivo, rat
Source text: The individual foci of infiltration were excised, fixed in 10% formalin, embedded in paraffin, and stained and examined by standard histopathological methods.
The controls received saline alone.
Tissues were excised, fixed in 10% formalin, embedded in paraffin, and stained and examined by standard histopathological methods.

rat prostate = experiment: Intraprostatic infusion in rats; prostate volume and histology at 72 hours; assay type: in vivo, rat (Sprague-Dawley); conditions: for prostate histology (H & E): intraprostatic infusion, rats sacrificed after 72 hours
Description: (§1) Male Sprague-Dawley rats (300 gram weight range) were anesthetized with ether and given NTP peptide #6 by intraprostatic infusion after open surgical visualization of the prostate. The injections consisted of 300 μl of NTP peptide #6, 1 mg/mL in PBS pH 7.4. (1.0 mg/kg) (n=8), control injections of PBS alone (n=6), and controls with no injection (n=2). Rats were painlessly sacrificed after 72 hours. Prostate glands were dissected, fixed in 10% buffered formalin for 24 hours, embedded in paraffin, sectioned, and stained with H & E. For each animal the entire prostate gland was embedded and sectioned. All stained sections were examined histologically and measured. For each prostate at least 4 histological sections were examined, and for each histological section two cross-sectional diameters (D) at 90° from each other were measured (total of ≧8 measurements per prostate). The mean diameter from these measurements for each prostate was used to estimate volume according to
as §1, with “Related Peptide #2” for “NTP peptide #6”, “Related Peptide #2,” for “NTP peptide #6,”, “>8” for “≧8”
The controls were the same as Example 1.
Normal rats were injected in the prostate as in the above Examples 1 and 4 with Related Peptide #3. Rats were painlessly sacrificed after 72 hours and their prostate glands were examined as in the above Examples 1 and 4.

[2] = test system: normal rodent muscle tissue, subcutaneous connective tissue, dermis; human and non-human origin tumors; conditions: dermis and a variety of human and non-human origin tumors in rodent models; cited from earlier work

With “GDHGRPNLSRLKLAIKYEVKKM [Related Peptide #1]” the “histopathology of tissue at injection sites” value ([1]; at 0.1-1 mg/mL in saline) was “cell death and necrosis of tissue at the injection sites”.

For “GLLFPVFSVCYLIAPKSPLGL [Related Peptide #3]”, the “prostate histology (H & E)” value (rat prostate) was “Significant cell loss and atrophy of prostate”.

For `CC[C@H](C)[C@H](NC(=O)[C@H](CCC(=O)O)NC(=O)[C@H](CC(C)C)NC(=O)[C@H](CCCCN)NC(=O)[C@@H](NC(=O)[C@H](CCCNC(=N)N)NC(=O)[C@H](CO)NC(=O)[C@@H](N)CC(C)C)[C@@H](C)CC)C(=O)N[C@@H](CCCCN)C(=O)O` [NTP peptide #7, LSRIKLEIK] (H-LSRIKLEIK-OH; N-terminus and C-terminus assumed), the “spread of necrosis beyond the site of injection” value [1] was “did not appear to spread far beyond the site of injection”.

With IDQQVLSRIKLEIKRCL [NTP peptide #6] the “prostate histology (H & E)” value (rat prostate) was “extensive loss of glandular epithelium, flattening and atrophy” and the “reduction in prostate volume compared to controls” value (rat prostate; intraprostatic open infusion 1.0 mg/kg (300 μl, 1 mg/mL in PBS pH 7.4), 72 hours, vs untreated or PBS treated controls, estimated from mean diameters) was 45% and > 40%.

For “AD7c-NTP: ˜41 kD neural thread protein, membrane associated phosphoprotein, SEQ ID NO. 1”, the “causing cell death in vivo” value [2] is given as “effective agent for causing cell death”.

In the case of QQSIAVKFLAVFGVSI [Related Peptide #2], the “prostate histology (H & E)” value (rat prostate) is reported as “significant cell loss and atrophy in the prostate”.
